# Measurements: paper PMC9533326 (Cancer discovery, 2021)
# Where two headings read alike, the source gives them in different places.
# How the values were obtained:
# [1] = design: species or system human; conditions: in vivo; for Time post-dose at which Cmax was observed: human
# [2] = earlier trial of navitoclax in lymphoid malignancies; cited from earlier work
# [3] = for Dose reduction due to TEAEs: 2 patients each; for Discontinuation due to study drug related AEs: all patients; for Drug discontinued due to TEAEs: all patients (venetoclax 11, navitoclax 12 patients)
# relapsed/refractory ALL = conditions: https://www.accessdata.fda.gov/drugsatfda_docs/label/2019/021877s010lbl.pdf; cited from earlier work
Compound,Time post-dose at which Cmax was observed [1],Dose reduction due to TEAEs [3],Discontinuation due to study drug related AEs [3],Drug discontinued due to TEAEs [3],Survival (median OS) reported in studies (relapsed/refractory ALL),also measured
"CC1(C)CCC(c2ccc(Cl)cc2)=C(CN2CCN(c3ccc(C(=O)NS(=O)(=O)c4ccc(N[C@H](CCN5CCOCC5)CSc5ccccc5)c(S(=O)(=O)C(F)(F)F)c4)cc3)CC2)C1 [Navitoclax, navitoclax]",4 to 8 h,4.3%,10.6%,25.5%,–,"Impact on venetoclax pharmacokinetics [1]: no significant impact; Maximum tolerated dose [2]: 325 mg/day; Rate of grade 3/4 thrombocytopenia [2]: 52.7%; Recommended phase II dose (RPTD) ([3]; patients weighing <45 kg, in combination with 400 mg adult-equivalent venetoclax): 25 mg; Recommended phase II dose (RPTD) ([3]; patients weighing ≥45 kg (adults), in combination with 400 mg venetoclax): 50 mg"
"CC1(C)CCC(CN2CCN(c3ccc(C(=O)NS(=O)(=O)c4ccc(NCC5CCOCC5)c([N+](=O)[O-])c4)c(Oc4cnc5[nH]ccc5c4)c3)CC2)=C(c2ccc(Cl)cc2)C1 [Venetoclax, venetoclax]",6 to 8 h,4.3%,12.8%,23.4%,–,"Recommended phase II dose ([3]; adult-equivalent, with navitoclax 50 mg (adults) or 25 mg (<45 kg)): 400 mg; Events of laboratory TLS ([3]; quick ramp-up to 400 mg venetoclax): 2 events"
COc1nc(N)nc2c1ncn2[C@@H]1O[C@H](CO)[C@@H](O)[C@@H]1O [nelarabine],–,–,–,–,4.7 months,–
blinatumomab: bispecific antibody,–,–,–,–,7.7 months,–
inotuzumab ozogamicin,–,–,–,–,7.7 months,–
